Columns and labels:
[1] = tested on: Pseudomonas aeruginosa (ATCC 27853 and various PSI strains); assay: Zone of inhibition test, Procedure 2; assay type: cell-based; conditions: Pseudomonas aeruginosa on DSA plates, 37° C., over the test period (every 24 hours for 72 hours)
Procedure: (§1) Six 2 cm×2 cm squares of each sample are cut out in sterile conditions. On day one of the experiment, cultures of both Pseudomonas aeruginosa (ATCC 27853 and various PSI strains) and Staphylococcus aureus (provided by the Dept of Clinical Microbiology and Pathology) are incubated aerobically at 37° C. for 24 hours on Diagnostic Sensitivity Agar (DSA). After 24 hours test samples are each placed on a DSA plate and immediately wetted with 0.5 mls of a buffer solution. Three squares of sample are placed on plates inoculated with Pseudomonas aeruginosa and three are placed on plates inoculated with Staphylococcus aureus. The plates are then incubated at 37° C. for 24 hours. The zone of inhibited growth around the sample is then measured using calipers, and the test sample is placed on a new inoculated DSA plate. A swab test is carried out on the area beneath the sample to determine if the sample is bacteriostatic if not bactericidal by smearing the swab on a DSA plate and incubating it for 24 hours and then examining the growth.

Staphylococcus aureus = assay: Zone of inhibition test, Procedure 2; assay type: cell-based; conditions: Staphylococcus aureus on DSA plates, 37° C., over the test period (every 24 hours for 72 hours)
Procedure: as §1

Q: O=[N+]([O-])[O-].[Ag+] [silver nitrate solution (0.5%), silver nitrate] was tested. Which zone of inhibition [1] did it give?
A: The zone of inhibition was “zones of inhibition were observed”.

Q: And the zone of inhibition (Staphylococcus aureus)?
A: The zone of inhibition was “zones of inhibition were observed”.

— patent US10143771B2, “Antioxidant and antimicrobial wound dressing materials” (KCI USA, Inc., priority 2003, dated 2018)
